Data taken from paper PMC3816012 (Structure (London, England : 1993), 2013).

Molecular target: IcmR-IcmQ (Legionella pneumophila, UniProt O54635)

SMILES: NC(=O)c1ccc[n+]([C@@H]2O[C@H](COP(=O)(O)OP(=O)(O)OC[C@H]3O[C@@H](n4cnc5c(N)ncnc54)[C@H](O)[C@@H]3O)[C@@H](O)[C@H]2O)c1 [NAD+]
- filter binding assay, 32P-labelled NAD+: A similar binding profile was observed for wild type IcmR-IcmQ complexes.
